Reference: patent US7632848B1, “Medical treatment of muscles by exposure to anesthetic drugs” (priority 2007, dated 2009)

Experiments:
[1] = test system: skeletal muscle fibers; settings: in vivo; cited from earlier work
[2] = test system: eye muscle (lateral rectus muscle); type: in vivo, human
Excerpt: In one embodiment, an eye muscle is selected for treatment. For an eye that is esotropic (turned inward or crossed), the physician will want to strengthen the lateral rectus muscle, which acts to pull the eye outward into better alignment. The surface of the eye is anesthetized with eye drops. A syringe is filled with up to 5.0 cc of bupivacaine, enough to fill the muscle and reach all the muscle fibers. The concentration of the bupivacaine solution is from 0.5% to 3.0%. The volume and concentration are varied depending on the amount of strengthening effect required. The syringe is attached to an injection needle insulated on its shaft. Therefore, the muscle electrical activity is picked up only with the exposed tip of the needle. The needle is attached to a wire leading to an electromyographic (EMG) recorder. A second wire leads to a ground attached to the skin of the patient's body. The eye is moved to a position at which the lateral rectus muscle to be treated is activated electrically as well as physically contracted. As the tip of the needle approaches the muscle area, the electrical activity is picked up and amplified by the EMG recorder as sound. The sound gets louder as the needle tip gets closer to and finally within the muscle. The needle is advanced behind the eye to the end of the muscle, about 3 cm, keeping the needle within the muscle, guided by the amplitude of the recorded sound. This is important, as the drug will anesthetize the nerves and the muscle with injection of the first few drops, thereafter leaving no guide as to position of the needle. The drug solution is injected starting at this deepest point, with continued injection of solution as the needle is withdrawn. In order to get the maximum effect, all the fibers of the muscle must be exposed to the drug. A smaller volume and concentration are applied when a sub-maximum effect is wanted. […] (Scott, A. B., Alexander, D. E., Miller, J. M., 2007, Bupivacaine injection of eye muscles to treat strabismus. Br J. Opthalmol. 91 (2), 146-148) In one case of eye muscle injection, I marked the solution with a contrast agent to show the exact location of the injected drug. […] All the same, the muscle became larger and stronger. This teaches that exposure of the fibers can also be effected by injecting around the muscle to bathe it. All the muscle fibers must be exposed to the drug to provide the maximal effect. Reducing exposure of the muscle fibers to the drug by reducing the volume of solution injected or by using a lower concentration of drug can be expected to provide a lesser effect. […]

[3] = test system: extensor digitorum longus muscle; settings: rat hind limb, sufficient concentration and volume; cited from earlier work

## CCCCN1CCCCC1C(=O)Nc1c(C)cccc1C (stereo not drawn) [bupivacaine]
[1]
  toxicity to muscle fibers: irreversible breakdown of the muscle fibers
[2]; eye muscle injection, up to 5.0 cc, 0.5% to 3.0%
  duration of muscle inactivity from the anesthetic effect: inactive for a day
[2]; eye muscle injection, as the muscle enlarges and strengthens
  eye position and movement after recovery: typically improve
[2]; in vivo
  recovery from the myotoxic effect: gradually recovers from the myotoxic effect of the drug over the next week
[2]; muscle fibers exposed to adequate concentration and volume of drug
  effect on muscle size and strength: enlarge and become stronger
[3]
  muscle size after injection: enlargement of the muscle beyond its original size
